Patent publication US8173689B2 (Novartis AG, priority 2006, dated 2012)
Where two headings read alike, the source gives them in different places.

What was measured:
[1] = molecular target: T1, full-length human CSF-1R receptor (Homo sapiens, UniProt P07333); assay: In vitro inhibition of CSF-1R receptor tyrosine phosphorylation in transfected HEK293H cells stimulated with MCSF; format: cell-based; conditions: tested at about 1 μM; for inhibition at 1 µM: HEK293-H, read-out: pCSF1R percent inhibition
T1 construct: transfected with the full-length human CSF-1R receptor cloned in house; expressed in transfected cells; host or cells: HEK293H (Invitrogen Cat. #11631017)
T1 sequence (P07333 20-972): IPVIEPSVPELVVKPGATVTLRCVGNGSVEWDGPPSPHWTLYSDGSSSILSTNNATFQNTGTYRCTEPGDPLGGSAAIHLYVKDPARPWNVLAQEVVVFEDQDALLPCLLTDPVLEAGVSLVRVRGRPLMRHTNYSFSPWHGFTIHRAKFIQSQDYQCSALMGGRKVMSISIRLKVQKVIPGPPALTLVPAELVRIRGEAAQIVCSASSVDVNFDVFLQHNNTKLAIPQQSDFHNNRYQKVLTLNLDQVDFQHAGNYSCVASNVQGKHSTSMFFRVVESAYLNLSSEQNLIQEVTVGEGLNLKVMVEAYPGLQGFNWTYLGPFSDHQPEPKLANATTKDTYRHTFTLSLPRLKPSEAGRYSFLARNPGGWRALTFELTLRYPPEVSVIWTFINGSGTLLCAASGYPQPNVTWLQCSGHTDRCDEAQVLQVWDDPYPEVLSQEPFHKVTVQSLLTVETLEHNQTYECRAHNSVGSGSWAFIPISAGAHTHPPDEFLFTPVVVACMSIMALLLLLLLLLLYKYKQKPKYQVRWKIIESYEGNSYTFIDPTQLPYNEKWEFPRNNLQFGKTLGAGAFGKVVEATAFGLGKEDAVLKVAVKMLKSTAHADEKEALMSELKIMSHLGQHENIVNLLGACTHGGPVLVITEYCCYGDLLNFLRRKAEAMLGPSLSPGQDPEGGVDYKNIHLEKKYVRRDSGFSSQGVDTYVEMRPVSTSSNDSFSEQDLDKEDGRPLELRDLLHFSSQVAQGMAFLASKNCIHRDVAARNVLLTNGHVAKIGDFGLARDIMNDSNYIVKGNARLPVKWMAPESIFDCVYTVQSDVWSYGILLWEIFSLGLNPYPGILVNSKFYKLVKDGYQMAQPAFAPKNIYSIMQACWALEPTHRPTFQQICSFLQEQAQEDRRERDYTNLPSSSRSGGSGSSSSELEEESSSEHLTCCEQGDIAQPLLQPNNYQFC
Protocol: The lysate was then transferred to total CSF-1R antibody coated 96-well plates that had already been blocked with 3% Blocker A from Mesoscale discovery (MSD) for 2 hours and washed afterwards. Lysates were incubated overnight at 4° C. and the plates were then washed 4× with MSD Tris Wash Buffer. […] The plates were read on the Sector 6000 instrument (MSD). Raw data was imported in Abase and EC50s calculated with XL-fit data analysis software.

[2] = molecular target: T2, cytoplasmic domain of the human CSF-1R (Homo sapiens, UniProt P07333); assay: In vitro kinase assay for colony stimulating factor-1 receptor (AlphaScreen); format: biochemical; conditions: tested at about 1 μM; for inhibition at 1 µM: read-out: CSF-1R percent inhibition
T2 construct: Recombinant protein corresponding to the cytoplasmic domain of the human CSF-1R; purchased Invitrogen Corporation, Carlsbad, Calif; PV3249
T2 sequence (P07333 539-972 limits assumed): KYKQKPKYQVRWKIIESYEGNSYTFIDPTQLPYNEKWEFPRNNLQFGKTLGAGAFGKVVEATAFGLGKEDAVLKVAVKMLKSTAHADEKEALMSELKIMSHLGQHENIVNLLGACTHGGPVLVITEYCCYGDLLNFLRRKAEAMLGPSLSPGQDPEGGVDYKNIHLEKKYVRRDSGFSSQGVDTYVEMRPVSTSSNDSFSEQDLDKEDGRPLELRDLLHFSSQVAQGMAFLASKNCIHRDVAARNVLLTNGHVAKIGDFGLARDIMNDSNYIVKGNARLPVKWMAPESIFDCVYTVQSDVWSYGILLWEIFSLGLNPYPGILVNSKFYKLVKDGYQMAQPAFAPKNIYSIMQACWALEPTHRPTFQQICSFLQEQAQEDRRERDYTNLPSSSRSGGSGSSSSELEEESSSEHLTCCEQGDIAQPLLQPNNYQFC
Method in brief: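 Test compounds, serially diluted threefold starting at 25 μM, were mixed with Hepes buffer (pH 7.5, Mg2+/Mn2+, DTT, BSA, Tween 80) containing 1 μM ATP. Recombinant kinase was present at 4 nM. After stopping, beads were added and plates were read the next day by AlphaScreen.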

[3] = molecular target: T3, kinase domain of PDGFRβ (Homo sapiens, UniProt P09619); assay: Inhibition of PDGFRb kinase signaling in an in vitro biochemical assay (alphascreen); conditions: tested at about 1 μM; for inhibition at 1 µM: read-out: PDGFRβ percent inhibition
T3 construct: The kinase domain of PDGFRβ was assayed in 50 mM Hepes; purchased Invitrogen P3082
T3 sequence (P09619 600-962 limits assumed): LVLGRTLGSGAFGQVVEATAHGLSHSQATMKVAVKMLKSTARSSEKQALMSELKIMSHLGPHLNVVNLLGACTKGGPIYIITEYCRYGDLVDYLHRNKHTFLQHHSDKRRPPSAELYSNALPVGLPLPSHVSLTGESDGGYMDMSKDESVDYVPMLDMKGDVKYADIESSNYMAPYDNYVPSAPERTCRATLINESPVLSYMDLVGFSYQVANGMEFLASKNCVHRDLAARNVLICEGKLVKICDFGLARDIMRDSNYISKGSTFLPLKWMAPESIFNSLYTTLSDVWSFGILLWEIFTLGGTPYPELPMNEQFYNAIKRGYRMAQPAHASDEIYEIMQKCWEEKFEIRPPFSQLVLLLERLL

[4] = tested on: MNFS60 (murine AML cells); assay: Cell viability assay in MCSF dependent MNFS60 cells (Cell Titer Glo); format: cell-based; conditions: tested at about 1 μM; for inhibition at 1 µM: Mus musculus, read-out: M-NFS-60 CP percent inhibition
Method in brief: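 Viability was read by Cell Titer Glo after 72 hrs at 37° C., 5% CO2, with triplicate conditions. Compounds were titrated 3-fold into MNFS60 cultures whose final MCSF level was 10 ng/ml. EC50 values came from curve fitting.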

[5] = molecular target: T4, kinase domain of cKIT (Homo sapiens, UniProt P10721); assay: Inhibition of cKIT kinase signaling in an in vitro biochemical assay (alphascreen); conditions: tested at about 1 μM; for inhibition at 1 µM: read-out: cKit percent inhibition
T4 construct: The kinase domain of cKIT was assayed in 50 mM Hepes; purchased Upstate 14-559
T4 sequence (P10721 589-937 limits assumed): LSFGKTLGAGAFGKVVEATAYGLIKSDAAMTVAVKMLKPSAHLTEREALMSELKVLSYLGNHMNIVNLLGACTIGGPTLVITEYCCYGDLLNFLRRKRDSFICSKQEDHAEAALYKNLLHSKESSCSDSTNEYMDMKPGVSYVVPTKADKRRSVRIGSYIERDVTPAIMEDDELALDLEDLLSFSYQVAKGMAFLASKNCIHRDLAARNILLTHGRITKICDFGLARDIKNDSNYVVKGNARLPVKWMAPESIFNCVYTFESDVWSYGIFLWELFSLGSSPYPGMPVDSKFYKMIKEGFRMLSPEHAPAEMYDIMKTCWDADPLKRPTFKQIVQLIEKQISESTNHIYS

Compound	inhibition at 1 µM ([1]; compounds of Table 3) [%]	inhibition at 1 µM ([2]; compounds of Table 3) [%]	inhibition at 1 µM ([3]; compounds of Table 3) [%]	inhibition at 1 µM ([5]; compounds of Table 3) [%]	inhibition at 1 µM ([1]; HEK293H cells) [%]	inhibition at 1 µM [2] [%]	inhibition at 1 µM [3] [%]	inhibition at 1 µM ([4]; compounds of Table 3) [%]	inhibition at 1 µM ([4]; MNFS60 cells) [%]	further results
4-[2-(2-Chloro- benzylamino)-benzooxazol- 6-yloxy]-pyridin-2- carboxylic acid methylamide [Compound 8]										pCSF1R percent inhibition ([1]; compounds of Table 4): 98%; CSF-1R percent inhibition ([2]; compounds of Table 4): 100%; PDGFRβ percent inhibition ([3]; compounds of Table 4): 35%; M-NFS-60 CP percent inhibition ([4]; compounds of Table 4): 100%; cKit percent inhibition ([5]; compounds of Table 4): 25%
CCc1[nH]c(-c2cc(Oc3ccc4nc(N[C@@H]5CCCC[C@H]5O)sc4c3)ccn2)nc1C [Cmpd 162, (1R,2R)-2-(6-(2-(5-ethyl-4-methyl-1H-imidazol-2-yl)pyridin-4-yloxy)benzo[d]thiazol-2-ylamino)cyclohexanol]	99	100	30	20				100		
C[C@H](Nc1nc2ccc(Oc3ccnc(-c4cnn(C)c4)c3)cc2s1)C1CCCCC1 [Cmpd 163, (S)-N-(1-cyclohexylethyl)-6-(2-(1-methyl-1H-pyrazol-4-yl)pyridin-4-yloxy)benzo[d]thiazol-2-amine]	99	100	39	32				100		
CN1CCN(c2ccc(-c3cc(Oc4ccc5nc(N[C@@H]6CCCC[C@H]6O)sc5c4)ccn3)cn2)CC1 [Cmpd 164, (1R,2R)-2-(6-(6'-(4-methylpiperazin-1-yl)-2,3'-bipyridin-4-yloxy)benzo[d]thiazol-2-ylamino)cyclohexanol]	100	100	87	79				100		
O[C@@H]1CCCC[C@H]1Nc1nc2ccc(Oc3ccnc(-c4ccc(N5CCOCC5)nc4)c3)cc2s1 [Cmpd 165, (1R,2R)-2-(6-(6'-morpholino-2,3'-bipyridin-4-yloxy)benzo[d]thiazol-2-ylamino)cyclohexanol]	98	100	83	83				100		
O[C@@H]1CCCC[C@H]1Nc1nc2ccc(Oc3ccnc(-c4cccc(CN5CCOCC5)c4)c3)cc2s1 [Cmpd 166, (1R,2R)-2-(6-(2-(3-(morpholinomethyl)phenyl)pyridin-4-yloxy)benzo[d]thiazol-2-ylamino)cyclohexanol]	78	100	0	13				49		
O[C@@H]1CCCC[C@H]1Nc1nc2ccc(Oc3ccnc(-c4ccc(CN5CCOCC5)cc4)c3)cc2s1 [Cmpd 168, (1R,2R)-2-(6-(2-(4-(morpholinomethyl)phenyl)pyridin-4-yloxy)benzo[d]thiazol-2-ylamino)cyclohexanol]	99	100	43	40				100		
CNC(=O)c1cc(Oc2ccc3nc(N[C@H](C)c4cccc5ccccc45)oc3c2)ccn1 [Compound 18, 4-[2-((R)-1-Naphthalen-1-yl-ethylamino)-benzooxazol-6-yloxy]-pyridine-2-carboxylic acid methylamide]					74	100	35		91	
CNC(=O)c1cc(Oc2ccc3nc(NCC4CCCCC4)oc3c2)ccn1 [Compound 21, 4-[2-(Cyclohexylmethyl-amino)-benzooxazol-6-yloxy]-pyridine-2-carboxylic acid methylamide]					65	99	0		55	
CNC(=O)c1cc(Oc2ccc3nc(Nc4ccccc4CN4CCOCC4)oc3c2)ccn1 [Compound 25, 4-[2-(2-Morpholin-4-ylmethyl-phenylamino)-benzooxazol-6-yloxy]-pyridine-2-carboxylic acid methylamide]					35	98	7		42	

Further lines, with some results ahead:

inhibition at 1 µM ([1]; compounds of Table 3) [%]	inhibition at 1 µM ([2]; compounds of Table 3) [%]	inhibition at 1 µM ([3]; compounds of Table 3) [%]	inhibition at 1 µM ([5]; compounds of Table 3) [%]	inhibition at 1 µM ([1]; HEK293H cells) [%]	inhibition at 1 µM [2] [%]	inhibition at 1 µM [3] [%]	Compound	inhibition at 1 µM ([4]; compounds of Table 3) [%]	inhibition at 1 µM ([4]; MNFS60 cells) [%]	further results
				96	99	28	CNC(=O)c1cc(Oc2ccc3nc(NCc4ccc(Cl)cc4)oc3c2)ccn1 [Compound 27, 4-[2-(4-Chloro-benzylamino)-benzooxazol-6-yloxy]-pyridine-2-carboxylic acid methylamide]		97	
				88	99	98	CNC(=O)c1cc(Oc2ccc3nc(Nc4ccc(OC)cc4OC)oc3c2)ccn1 [Compound 28, 4-[2-(2,4-Dimethoxy-phenyl-amino)-benzooxazol-6-yl-oxy]-pyridine-2-carboxylic acid methylamide]		98	
				79	100		CNC(=O)c1cc(Oc2ccc3nc(N[C@H](C)c4ccccc4OC)oc3c2)ccn1 [Compound 31, 4-{2-[(R)-1-(2-Methoxy-phenyl)-ethylamino]-benzooxazol-6-yloxy}-pyridine-2-carboxylic acid methylamide]		57	inhibition at 1 µM [5]: 18%
				93	100	22	CC(=O)Nc1cc(Oc2ccc3nc(NCc4ccccc4Cl)oc3c2)ccn1 [Compound 32, N-{4-[2-(2-Chloro-benzylamino)-benzooxazol-6-yloxy]-pyridin-2-yl}-acetamide]		70	
				65	99	89	CC(=O)Nc1cc(Oc2ccc3nc(NCC4CCCCC4)oc3c2)ccn1 [Compound 34, N-{4-[2-(Cyclohexylmethyl-amino)-benzooxazol-6-yloxy]-pyridin-2-yl}-acetamide]		68	
				94	100	30	CNC(=O)c1cc(Oc2ccc3nc(NCc4ccccc4)oc3c2)ccn1 [Compound 41, 4-(2-Benzylamino-benzooxazol-6-yloxy)-pyridine-2-carboxylic acid methylamide]		100	
				97	99	12	CNC(=O)c1cc(Oc2ccc3nc(NCc4cccc(Cl)c4)oc3c2)ccn1 [Compound 42, 4-[2-(3-Chloro-benzylamino)-benzooxazol-6-yloxy]-pyridine-2-carboxylic acid methylamide]		100	
				98	99		CNC(=O)c1cc(Oc2ccc3nc(NCc4ccccc4N(C)C)oc3c2)ccn1 [Compound 85, 4-[2-(2-Dimethylamino-benzylamino)-benzooxazol-6-yloxy]-pyridine-2-carboxylic acid methylamide]		100	inhibition at 1 µM [5]: 79%
				96	100		CNC(=O)c1cc(Oc2ccc3nc(NCc4ccccc4N4CCOCC4)oc3c2)ccn1 [Compound 88, 4-[2-(2-Morpholin-4-yl-benzylamino)-benzooxazol-6-yloxy]-pyridine-2-carboxylic acid methylamide]		100	inhibition at 1 µM [5]: 98%
				97	99		CNC(=O)c1cc(Oc2ccc3nc(NCc4cccc(OC)c4OC)oc3c2)ccn1 [Compound 91, 4-[2-(2,3-Dimethoxy-benzyl-amino)-benzooxazol-6-yloxy]-pyridine-2-carboxylic acid methylamide]		87	inhibition at 1 µM [5]: 93%
